Consider 23 molecules from US8633206B2, “Pyrrolo[2,3-D]pyrimidine compounds” (Pfizer Inc., priority 2009, dated 2014).

What all share (format): biochemical
One assay deals with JAK1 (Homo sapiens (Human), UniProt P23458). Description: JAK enzymatic assay (peptide mobility shift), JAK1. The note with it: recombinant JAK1 20 nM, IRS-1 peptide, 240 minutes.
The target in another assay is JAK2 (Homo sapiens (Human), UniProt O60674). Description: JAK enzymatic assay (peptide mobility shift), JAK2. The note with it: recombinant JAK2 2 nM, JAKtide peptide, 150 minutes.
The next assay deals with JAK3 (Homo sapiens (Human), UniProt P52333). The experiment in a line: JAK enzymatic assay (peptide mobility shift), JAK3. The note with it: recombinant JAK3 1 nM, JAKtide peptide, 90 minutes.

Each structure is given as a SMILES string.

JAK1, sequence (P23458 whole entry): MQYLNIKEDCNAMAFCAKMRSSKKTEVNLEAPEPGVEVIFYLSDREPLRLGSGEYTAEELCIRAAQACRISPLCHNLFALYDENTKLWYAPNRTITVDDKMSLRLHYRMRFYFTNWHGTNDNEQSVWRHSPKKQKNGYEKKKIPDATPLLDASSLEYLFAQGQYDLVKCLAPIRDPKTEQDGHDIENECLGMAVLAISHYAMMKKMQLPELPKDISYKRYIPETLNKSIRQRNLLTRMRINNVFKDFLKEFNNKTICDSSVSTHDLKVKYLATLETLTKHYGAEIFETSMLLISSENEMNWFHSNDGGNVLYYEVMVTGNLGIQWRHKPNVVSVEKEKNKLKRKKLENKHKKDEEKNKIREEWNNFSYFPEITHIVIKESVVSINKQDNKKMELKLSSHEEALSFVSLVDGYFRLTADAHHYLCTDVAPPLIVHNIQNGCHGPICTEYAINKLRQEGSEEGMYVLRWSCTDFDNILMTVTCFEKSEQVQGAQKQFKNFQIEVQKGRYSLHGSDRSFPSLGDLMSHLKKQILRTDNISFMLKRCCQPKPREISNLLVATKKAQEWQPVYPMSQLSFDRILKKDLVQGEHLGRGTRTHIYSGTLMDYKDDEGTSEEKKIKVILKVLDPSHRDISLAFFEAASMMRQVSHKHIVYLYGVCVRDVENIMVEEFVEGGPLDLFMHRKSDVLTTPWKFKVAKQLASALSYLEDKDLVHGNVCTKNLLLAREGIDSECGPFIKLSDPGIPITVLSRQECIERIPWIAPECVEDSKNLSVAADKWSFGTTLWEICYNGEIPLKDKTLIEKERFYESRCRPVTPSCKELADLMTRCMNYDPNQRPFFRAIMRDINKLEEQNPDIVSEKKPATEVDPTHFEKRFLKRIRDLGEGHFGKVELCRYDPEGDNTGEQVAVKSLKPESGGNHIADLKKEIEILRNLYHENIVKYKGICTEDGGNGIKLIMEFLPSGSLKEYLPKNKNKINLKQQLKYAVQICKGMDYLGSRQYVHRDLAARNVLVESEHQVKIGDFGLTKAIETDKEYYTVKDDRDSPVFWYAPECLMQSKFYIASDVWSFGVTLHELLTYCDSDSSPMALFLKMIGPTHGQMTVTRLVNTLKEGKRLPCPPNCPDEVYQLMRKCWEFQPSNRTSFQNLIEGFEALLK
JAK2, sequence (O60674 808-1132): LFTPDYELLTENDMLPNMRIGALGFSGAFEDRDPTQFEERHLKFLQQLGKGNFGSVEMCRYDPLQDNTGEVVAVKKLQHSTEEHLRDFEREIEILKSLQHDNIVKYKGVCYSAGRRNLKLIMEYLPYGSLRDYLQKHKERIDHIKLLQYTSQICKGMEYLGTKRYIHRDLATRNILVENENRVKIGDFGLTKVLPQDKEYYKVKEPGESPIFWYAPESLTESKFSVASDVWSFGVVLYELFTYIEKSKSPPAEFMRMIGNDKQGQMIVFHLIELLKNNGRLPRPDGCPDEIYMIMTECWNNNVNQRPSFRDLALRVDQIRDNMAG
JAK3, sequence (P52333 781-1124): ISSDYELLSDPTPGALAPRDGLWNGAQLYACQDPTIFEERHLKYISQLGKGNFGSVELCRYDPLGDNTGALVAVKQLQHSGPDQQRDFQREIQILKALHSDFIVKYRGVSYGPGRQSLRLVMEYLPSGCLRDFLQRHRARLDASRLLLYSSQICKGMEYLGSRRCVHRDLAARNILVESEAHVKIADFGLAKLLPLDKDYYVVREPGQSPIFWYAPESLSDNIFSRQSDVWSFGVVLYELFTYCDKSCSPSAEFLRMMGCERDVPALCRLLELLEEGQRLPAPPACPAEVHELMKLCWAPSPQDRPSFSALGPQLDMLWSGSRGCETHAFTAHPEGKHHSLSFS

With `COc1ccccc1CS(=O)(=O)[C@H]1CCN(S(=O)(=O)C[C@H]2CC[C@H](N(C)c3ncnc4[nH]ccc34)CC2)C1` [Example 89, N-{trans-4-[({3-[(2-methoxybenzyl)sulfonyl]-pyrrolidin-1-yl}sulfonyl)-methyl]cyclohexyl}-N-methyl-7H-pyrrolo[2,3-d]-pyrimidin-4-amine], the results for the IC50 at JAK1, on JAK2 and at JAK3 were 4.45 nM, 17.5 nM and 96.6 nM, respectively.
Turning to `CN(c1ncnc2[nH]ccc12)[C@H]1CC[C@H](CS(=O)(=O)N2CCC(c3nc(CS(C)(=O)=O)no3)CC2)CC1` [Example 50, N-methyl-N-(trans-4-{[(4-{3-[(methylsulfonyl)-methyl]-1,2,4-oxadiazol-5-yl}piperidin-1-yl)sulfonyl]-methyl)cyclohexyl)-7H-pyrrolo[2,3-d]pyrimidin-4-amine], the IC50 on JAK1 is 8.33 nM; at JAK2 it was 65.8 nM; on JAK3 it was 581 nM.
Take `COC[C@@H]1CCN(S(=O)(=O)C[C@H]2CC[C@H](N(C)c3ncnc4[nH]ccc34)CC2)C1` [Example 73, N-[trans-4-({[3-(methoxy-methyl)pyrrolidin-1-yl]-sulfonyl}methyl)-cyclohexyl]-N-methyl-7H-pyrrolo[2,3-d]pyrimidin-4-amine]: the IC50 on JAK1 came to 1.69 nM; on JAK2, 22.5 nM; on JAK3, 138 nM.
Regarding `C[C@H]1CN(S(=O)(=O)C[C@H]2CC[C@H](N(C)c3ncnc4[nH]ccc34)CC2)C[C@@H]1CO` [Example 80, {(3R,4R)-4-methyl-1-[({trans-4-[methyl(7H-pyrrolo[2,3-d]pyrimidin-4-yl)amino]cyclohexyl}-methyl)sulfonyl]pyrrolidin-3-yl}methanol], the IC50 on JAK1 stood at 3.03 nM; on JAK2, 18.5 nM; at JAK3 it was 205 nM.
Regarding `CN(C)C(=O)CO[C@@H]1CCN(S(=O)(=O)C[C@H]2CC[C@H](N(C)c3ncnc4[nH]ccc34)CC2)C1` [Example 77, N,N-dimethyl-2-({(3R)-1-[({trans-4-[methyl(7H-pyrrolo[2,3-d]pyrimidin-4-yl)amino]cyclohexyl}-methyl)sulfonyl]pyrrolidin-3-yl}oxy)acetamide], the half-maximal inhibitory concentration (IC50) on JAK1 was 10.1 nM; at JAK2, 50.2 nM; at JAK3, 644 nM.
As for `CN(c1ncnc2[nH]ccc12)[C@H]1CC[C@H](CS(=O)(=O)N2CCC(O)CC2)CC1` [Example 9, 1-[({trans-4-[methyl(7H-pyrrolo[2,3-d]pyrimidin-4-yl)amino]cyclohexyl}methyl)-sulfonyl]piperidin-4-ol], the IC50 at JAK1 stood at 9.18 nM; at JAK2, 34.2 nM; on JAK3 it was 342 nM.
The like results for `CN(c1ncnc2[nH]ccc12)[C@H]1CC[C@H](CS(=O)(=O)N2CC[C@@](O)(CSc3ccccn3)C2)CC1` [Example 97, 1-[({trans-4-[methyl(7H-pyrrolo[2,3-d]pyrimidin-4-yl)-amino]cyclohexyl}-methyl)sulfonyl]-3-[(pyridin-2-ylthio)-methyl]pyrrolidin-3-ol] were, in that order, 1.36 nM, 13.1 nM and 85.6 nM.
Turning to `CO[C@@H]1CCCN(S(=O)(=O)C[C@H]2CC[C@H](N(C)c3ncnc4[nH]ccc34)CC2)C1` [Example 60, N-(trans-4-{[(3-methoxy-piperidin-1-yl)sulfonyl]-methyl}cyclohexyl)-N-methyl-7H-pyrrolo[2,3-d]-pyrimidin-4-amine], the values for the half-maximal inhibitory concentration (IC50) on JAK1, on JAK2 and on JAK3 were 1.7 nM, 23.7 nM and 203 nM, respectively.
For the molecule `C[C@H]1CCCN(S(=O)(=O)C[C@H]2CC[C@H](N(C)c3ncnc4[nH]ccc34)CC2)C1` [Example 61, N-methyl-N-(trans-4-{[(3-methylpiperidin-1-yl)sulfonyl]methyl}cyclo-hexyl)-7H-pyrrolo[2,3-d]-pyrimidin-4-amine], the IC50 on JAK1 was 10.8 nM; at JAK2, 72.2 nM; at JAK3, 851 nM.
Regarding `CN(c1ncnc2[nH]ccc12)[C@H]1CC[C@H](CS(=O)(=O)N2CC[C@H](OCC(=O)N3CCCC3)C2)CC1` [Example 98, N-methyl-N-[trans-4-({[3-(2-oxo-2-pyrrolidin-1-ylethoxy)pyrrolidin-1-yl]sulfonyl}methyl)cyclo-hexyl]-7H-pyrrolo[2,3-d]pyrimidin-4-amine], the IC50 worked out at 4.37 nM on JAK1, 29.6 nM on JAK2 and 386 nM at JAK3.
For `CN(c1ncnc2[nH]ccc12)[C@H]1CC[C@H](CS(=O)(=O)N2CC[C@](CO)(CCO)C2)CC1` [Example 95, 2-{3-(hydroxymethyl)-1-[({trans-4-[methyl(7H-pyrrolo[2,3-d]pyrimidin-4-yl)amino]cyclohexyl}-methyl)sulfonyl]pyrrolidin-3-yl}-ethanol], the half-inhibitory concentration (IC50) at JAK1 was 12.5 nM; on JAK2, 45.8 nM; on JAK3, 612 nM.
For `CN(c1ncnc2[nH]ccc12)[C@H]1CC[C@H](CS(=O)(=O)N2CC[C@H](c3ccccc3F)C2)CC1` [Example 93, N-[trans-4-({[3-(2-fluorophenyl)pyrrolidin-1-yl]sulfonyl}methyl)cyclo-hexyl]-N-methyl-7H-pyrrolo[2,3-d]pyrimidin-4-amine], the figures for the half-maximal inhibitory concentration (IC50) at JAK1, on JAK2 and at JAK3 were 5.5 nM, 37.4 nM and 286 nM, respectively.
`CN(c1ncnc2[nH]ccc12)[C@H]1CC[C@H](CS(=O)(=O)N2CC[C@@H](O)[C@@H](O)C2)CC1` [Example 13, (3S,4R)-1-[({trans-4-[methyl(7H-pyrrolo[2,3-d]pyrimidin-4-yl)amino]-cyclohexyl}methyl)sulfonyl]-piperidine-3,4-diol]: the IC50 on JAK1 was determined as 6.99 nM; on JAK2, 32 nM; at JAK3, 275 nM.
The matching figures for `COC1CCN(S(=O)(=O)C[C@H]2CC[C@H](N(C)c3ncnc4[nH]ccc34)CC2)CC1` [Example 41, N-(trans-4-{[(4-methoxy-piperidin-1-yl)-sulfonyl]-methyl}cyclohexyl)-N-methyl-7H-pyrrolo[2,3-d]-pyrimidin-4-amine]: 22.1 nM, 107 nM and 634 nM.
On to `CN(c1ncnc2[nH]ccc12)[C@H]1CC[C@H](CS(=O)(=O)N2C[C@@H](O)[C@H](c3ccccc3)C2)CC1` [Example 29, (3S,4R)-1-[({trans-4-[methyl(7H-pyrrolo[2,3-d]pyrimidin-4-yl)amino]-cyclohexyl}methyl)sulfonyl]-4-phenylpyrrolidin-3-ol], for which the half-maximal inhibitory concentration (IC50) at JAK1 stood at 5.22 nM; on JAK2, 15 nM; on JAK3, 151 nM.
In the case of `CNS(=O)(=O)[C@H]1CCN(S(=O)(=O)C[C@H]2CC[C@H](N(C)c3ncnc4[nH]ccc34)CC2)C1` [Example 81, N-methyl-1-[({trans-4-[methyl(7H-pyrrolo[2,3-d]-pyrimidin-4-yl)amino]-cyclohexyl}methyl)sulfonyl] pyrrolidine-3-sulfonamide], the IC50 is 2.78 nM on JAK1, 24.8 nM at JAK2 and 90.6 nM at JAK3.
Turning to `CN(c1ncnc2[nH]ccc12)[C@H]1CC[C@H](CS(=O)(=O)N2CC[C@H](COCc3cccnc3)C2)CC1` [Example 96, N-methyl-N-{trans-4-[({3-[(pyridin-3-ylmethoxy)-methyl]pyrrolidin-1-yl}-sulfonyl)methyl]-cyclohexyl}-7H-pyrrolo[2,3-d]pyrimidin-4-amine], the half-maximal inhibitory concentration (IC50) on JAK1 stood at 19.3 nM; on JAK2, 32.1 nM; on JAK3, 462 nM.
For the molecule `C[C@@H]1C[C@@H](CS(=O)(=O)N2CCC[C@H](O)C2)CC[C@@H]1N(C)c1ncnc2[nH]ccc12` [Example 131, (3S)-1-[({(1S,3R,4S)-3-methyl-4-[methyl(7H-pyrrolo[2,3-d]pyrimidin-4-yl)amino]cyclohexyl}methyl)-sulfonyl]piperidin-3-ol], the concentration for half-maximal inhibition (IC50) on JAK1 is 5.28 nM; at JAK2, 12 nM; on JAK3 it was 32.5 nM.
In the case of `CC1CCN(S(=O)(=O)C[C@H]2CC[C@H](N(C)c3ncnc4[nH]ccc34)CC2)CC1` [Example 51, N-methyl-N-(trans-4-{[(4-methylpiperidin-1-yl)sulfonyl]-methyl}cyclohexyl)-7H-pyrrolo[2,3-d]pyrimidin-4-amine], the 50% inhibitory concentration (IC50) at JAK1 was determined as 16.4 nM; on JAK2, 85.1 nM; on JAK3 it was 781 nM.
`CN(c1ncnc2[nH]ccc12)[C@H]1CC[C@H](CS(=O)(=O)N2CCC[C@@](C)(O)C2)CC1` [Example 65, 3-methyl-1-[({trans-4-[methyl(7H-pyrrolo[2,3-d]-pyrimidin-4-yl)amino]-cyclohexyl}methyl)sulfonyl] piperidin-3-ol]: the IC50 at JAK1 was 7.6 nM; at JAK2, 40.9 nM; at JAK3 it was 431 nM.
Turning to `CO[C@@H]1CCN(S(=O)(=O)C[C@H]2CC[C@H](N(C)c3ncnc4[nH]ccc34)CC2)C1` [Example 68, N-[trans-4-({[(3R)-3-methoxypyrrolidin-1-yl]sulfonyl}methyl)cyclo-hexyl]-N-methyl-7H-pyrrolo[2,3-d]pyrimidin-4-amine], the IC50 at JAK1 is 11.9 nM; at JAK2, 41.8 nM; at JAK3, 468 nM.
Consider `CCOP(=O)(OCC)O[C@@H]1CCCN(S(=O)(=O)C[C@H]2CC[C@H](N(C)c3ncnc4[nH]ccc34)CC2)C1` [Example 140, Diethyl (3R)-1-[({trans-4-[methyl(7H-pyrrolo[2,3-d]pyrimidin-4-yl)amino]cyclohexyl}methyl)sulfonyl]piperidin-3-yl phosphate], for which the values for the IC50 on JAK1, at JAK2 and on JAK3 were 0.0235 nM, 0.116 nM and 1.8 nM, respectively.
As to `CC[C@@]1(CO)CCN(S(=O)(=O)C[C@H]2CC[C@H](N(C)c3ncnc4[nH]ccc34)CC2)C1` [Example 74, {3-ethyl-1-[({trans-4-[methyl(7H-pyrrolo[2,3-d]-pyrimidin-4-yl)amino]-cyclohexyl}methyl)sulfonyl]-pyrrolidin-3-yl}methanol], the 50% inhibitory concentration (IC50) came out at 17.3 nM at JAK1, 55.2 nM at JAK2 and 495 nM on JAK3.

Usually IC50 stands for the concentration that gives 50% inhibition.
